{"source": "patent US10246426B2", "about": "“Triazole compounds as T-type calcium channel blockers” (IDORSIA PHARMACEUTICALS LTD, priority 2014, dated 2019)"}
{"molecular_target": "Cav3.2 (Homo sapiens, UniProt O95180)", "sequence (O95180 whole entry, looked up)": "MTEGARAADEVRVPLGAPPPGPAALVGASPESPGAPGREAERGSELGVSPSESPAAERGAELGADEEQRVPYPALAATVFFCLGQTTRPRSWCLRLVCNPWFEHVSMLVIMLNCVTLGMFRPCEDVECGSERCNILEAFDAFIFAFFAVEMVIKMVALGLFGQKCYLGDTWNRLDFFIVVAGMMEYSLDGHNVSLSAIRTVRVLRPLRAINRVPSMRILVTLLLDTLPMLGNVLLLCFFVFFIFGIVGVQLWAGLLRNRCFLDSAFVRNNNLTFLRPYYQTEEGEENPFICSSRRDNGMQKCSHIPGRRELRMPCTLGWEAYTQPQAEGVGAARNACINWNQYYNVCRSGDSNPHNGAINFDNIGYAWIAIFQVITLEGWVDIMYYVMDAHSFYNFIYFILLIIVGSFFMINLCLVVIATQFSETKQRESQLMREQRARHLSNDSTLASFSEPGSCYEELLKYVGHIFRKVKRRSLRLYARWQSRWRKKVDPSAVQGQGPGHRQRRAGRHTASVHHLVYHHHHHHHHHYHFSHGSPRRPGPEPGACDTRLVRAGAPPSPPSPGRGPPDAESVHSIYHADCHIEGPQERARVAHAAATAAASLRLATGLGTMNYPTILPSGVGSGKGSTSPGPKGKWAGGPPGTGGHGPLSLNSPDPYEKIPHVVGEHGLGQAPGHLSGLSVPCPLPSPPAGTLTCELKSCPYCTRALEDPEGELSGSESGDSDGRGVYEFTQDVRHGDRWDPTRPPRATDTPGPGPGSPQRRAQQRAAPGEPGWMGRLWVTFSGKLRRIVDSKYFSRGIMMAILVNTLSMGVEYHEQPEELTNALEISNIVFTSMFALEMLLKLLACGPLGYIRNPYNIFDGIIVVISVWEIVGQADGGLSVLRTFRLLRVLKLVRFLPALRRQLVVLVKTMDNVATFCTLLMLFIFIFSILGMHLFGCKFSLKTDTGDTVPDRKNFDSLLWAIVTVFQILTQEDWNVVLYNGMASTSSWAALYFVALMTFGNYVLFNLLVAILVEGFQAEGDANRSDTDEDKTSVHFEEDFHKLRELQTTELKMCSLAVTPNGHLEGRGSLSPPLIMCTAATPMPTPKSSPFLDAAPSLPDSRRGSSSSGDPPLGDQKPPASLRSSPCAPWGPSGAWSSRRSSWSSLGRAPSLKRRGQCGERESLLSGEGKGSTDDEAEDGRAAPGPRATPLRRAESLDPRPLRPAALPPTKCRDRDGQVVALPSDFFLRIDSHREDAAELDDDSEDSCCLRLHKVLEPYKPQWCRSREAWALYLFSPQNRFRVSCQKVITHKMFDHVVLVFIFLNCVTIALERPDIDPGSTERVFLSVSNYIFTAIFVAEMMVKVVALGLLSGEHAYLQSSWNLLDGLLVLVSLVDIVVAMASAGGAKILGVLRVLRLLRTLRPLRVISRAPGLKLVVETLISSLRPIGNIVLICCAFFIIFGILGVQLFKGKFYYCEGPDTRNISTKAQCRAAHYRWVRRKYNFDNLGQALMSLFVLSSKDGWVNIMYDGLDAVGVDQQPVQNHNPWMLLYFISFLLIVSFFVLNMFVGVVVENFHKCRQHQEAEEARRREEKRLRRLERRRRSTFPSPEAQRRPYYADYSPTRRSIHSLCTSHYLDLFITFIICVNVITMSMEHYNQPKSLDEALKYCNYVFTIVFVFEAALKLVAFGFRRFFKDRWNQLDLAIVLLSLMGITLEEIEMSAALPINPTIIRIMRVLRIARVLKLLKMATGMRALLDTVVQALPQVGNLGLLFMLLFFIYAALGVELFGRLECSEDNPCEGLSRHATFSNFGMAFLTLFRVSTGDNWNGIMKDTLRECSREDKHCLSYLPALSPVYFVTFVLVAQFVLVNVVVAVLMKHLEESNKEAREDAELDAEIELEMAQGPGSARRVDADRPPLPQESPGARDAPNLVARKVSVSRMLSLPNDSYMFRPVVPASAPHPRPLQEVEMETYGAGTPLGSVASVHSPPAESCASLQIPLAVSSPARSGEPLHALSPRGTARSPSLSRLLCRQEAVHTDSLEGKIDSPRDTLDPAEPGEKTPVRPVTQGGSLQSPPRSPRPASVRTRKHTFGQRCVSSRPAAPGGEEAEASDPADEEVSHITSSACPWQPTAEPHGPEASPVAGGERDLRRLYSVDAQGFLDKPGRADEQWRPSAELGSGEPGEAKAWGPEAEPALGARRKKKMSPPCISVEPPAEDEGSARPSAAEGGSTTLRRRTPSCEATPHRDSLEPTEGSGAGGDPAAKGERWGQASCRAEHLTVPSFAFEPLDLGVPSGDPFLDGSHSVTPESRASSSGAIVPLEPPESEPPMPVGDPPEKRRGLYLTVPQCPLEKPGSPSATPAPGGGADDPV", "test": "Calcium flux FLIPR assay, HEK293 cells recombinantly expressing Cav3.2", "type": "cell-based", "details": "Cav3.2-channel, Ca2+ entry stimulated by 10 mM CaCl2", "experimental": "In Vitro Methods—Measurement of Calcium Channel Flux by Means of FLIPR Assays.\nHEK293 cells recombinantly expressing either voltage-dependent T-type calcium channel subunit […] (Cav3.2) or voltage-dependent L-type calcium channel subunit alpha-1C (Cav1.2) are assayed for calcium flux using the calcium indicator dye Fluo-4-AM (Molecular Devices) and FLIPR technology (Fluorometric Imaging Plate Reader, Molecular Devices) (Xie X, Van Deusen A L, Vitko I, Babu D A, Davies L A, Huynh N, Cheng H, Yang N, Barrett P Q, Perez-Reyes E. Validation of high throughput screening assays against three subtypes of Ca(v)3 T-type channels using molecular and pharmacologic approaches. Assay and Drug Development Technologies 2007, 5(2), 191-203). The HEK293 cells recombinantly expressing Cav3.2 are maintained in DMEM growth medium (Life Technologies) supplemented with 10% Fetal Bovine Serum (FBS), 100 U/ml penicilin (Life Technologies), 100 μg/ml streptomycin (Life Technologies) and 1 mg/ml G418 (Life Technologies). HEK293 cells recombinantly expressing Cav1.2 are maintained in DMEM growth medium (Life technologies) supplemented with 10% FBS, 0.1 mg/ml G418 (Life Technologies), 0.1 mg/ml hygromycin (Life Technologies) and 40 ug/ml zeocin (Life Technologies).\nCells are washed once with PBS, then dissociated in 0.25% trypsin/EDTA (Life Technologies) and seeded into poly-D-lysine coated 384-well black, clear bottom plates (BD Biosciences) at a density of 30,000 cells/well. The seeded plates are incubated overnight at 37° C.\nImmediately prior to performing the assay, medium is removed and cells are treated for 1 hour at 37° C. with loading buffer containing HBSS 1× (137 mM NaCl; 5.4 mM KCl; 0.25 mM Na2HPO4; 1.3 mM CaCl2; 0.4 mM MgSO04; 0.5 mM MgCl2; 0.4 mM KH2PO4, pH 7.4), 0.375 g/L NaHCO3, 20 mM Hepes, supplemented with 3 μM Fluo-4-AM and 0.15% Pluronic (Life Technologies). The cells are then washed three times with assay buffer (HBSS 1×; 0.375 g/L NaHCO3; 20 mM Hepes; 1% FBS; pH 7.4) and allowed to rest in 50 μl of wash buffer for 30 minutes.\nStock solutions of test compounds are prepared to a concentration of 10 mM in DMSO. For the Cav3.2 assay, serial dilutions of the compounds are prepared in TEAC buffer (100 mM tetraethylammonium chloride; 20 mM Hepes; 2.5 mM CaCl2; 5 mM KCl; 1 mM MgCl2; 1% FBS; pH 7.2), for the Cav1.2 assay serial dilutions are prepared in assay buffer. […] The compounds are incubated with the cells for 3 minutes and Ca2+ entry is stimulated by adding either CaCl2 to a final concentration of 10 mM (Cav3.2 assay) or by adding KCl to a final concentration of 20 mM (Cav1.2 assay). The kinetics of fluorescence increase are recorded for every well and the area under the fluorescence trace for every compound concentration is used to generate inhibition curves using non-linear regression sigmoidal concentration-response curve analysis with in-house software. IC50 values are calculated and represent the compound concentration required to inhibit 50% of the signal that is obtained in the presence of vehicle instead of test compound.", "units": {"IC50": "nM"}}
{"smiles": "COc1cc(Cn2ncc(NC(=O)Cc3ccc(OC4CC(F)(F)C4)cc3)n2)cc(F)c1F", "note": "[Example 230, 2-[4-(3,3-Difluoro-cyclobutoxy)-phenyl]-N-[2-(3,4-difluoro-5-methoxy-benzyl)-2H-[1,2,3]triazol-4-yl]-acetamide]", "IC50": 350}
{"smiles": "Cc1cc(Cn2ncc(NC(=O)Cc3ccc(C(C)C)cc3)n2)ccc1C#N", "note": "[Example 165, N-[2-(4-Cyano-3-methyl-benzyl)-2H-[1,2,3]triazol-4-yl]-2-(4-isopropyl-phenyl)-acetamide]", "IC50": 18}
{"smiles": "COc1cc(Cn2ncc(NC(=O)Cc3ccc(N4CCC(F)(F)C4)nc3)n2)cc(F)c1F", "note": "[Example 219, N-[2-(3,4-Difluoro-5-methoxy-benzyl)-2H-[1,2,3]triazol-4-yl]-2-[6-(3,3-difluoro-pyrrolidin-1-yl)-pyridin-3-yl]-acetamide]", "IC50": 120}
{"smiles": "COc1cc(Cn2ncc(NC(=O)Cc3ccc(C4(F)COC4)cc3)n2)ccc1F", "note": "[Example 116, N-[2-(4-Fluoro-3-methoxy-benzyl)-2H-[1,2,3]triazol-4-yl]-2-[4-(3-fluoro-oxetan-3-yl)-phenyl]-acetamide]", "IC50": 140}
{"smiles": "Cn1ncc2cc(CC(=O)Nc3cnn(Cc4ccc(OC(F)(F)F)cc4)n3)ccc21", "note": "[Example 92, 2-(1-Methyl-1H-indazol-5-yl)-N-[2-(4-trifluoromethoxy-benzyl)-2H-[1,2,3]triazol-4-yl]-acetamide]", "IC50": 9.9}
{"smiles": "CCN(CC)c1ccc(CC(=O)Nc2cnn(Cc3ccc(F)cc3)n2)cn1", "note": "[Example 95, 2-(6-Diethylamino-pyridin-3-yl)-N-[2-(4-fluoro-benzyl)-2H-[1,2,3]triazol-4-yl]-acetamide]", "IC50": 46}
{"smiles": "Cn1ccc2cc(CC(=O)Nc3cnn(Cc4ccc(OC(F)(F)F)cc4)n3)ccc21", "note": "[Example 91, 2-(1-Methyl-1H-indol-5-yl)-N-[2-(4-trifluoromethoxy-benzyl)-2H-[1,2,3]triazol-4-yl]-acetamide]", "IC50": 7.4}
{"smiles": "COCCOc1ccc(Cn2ncc(NC(=O)Cc3ccc4c(ccn4C)c3)n2)cc1", "note": "[Example 87, N-{2-[4-(2-Methoxy-ethoxy)-benzyl]-2H-[1,2,3]triazol-4-yl}-2-(1-methyl-1H-indol-5-yl)-acetamide]", "IC50": 460}
{"smiles": "Cn1ccc2cc(CC(=O)Nc3cnn(Cc4ccc(F)c(F)c4)n3)ccc21", "note": "[Example 7, N-[2-(3,4-Difluoro-benzyl)-2H-[1,2,3]triazol-4-yl]-2-(1-methyl-1H-indol-5-yl)-acetamide]", "IC50": 6.4}
{"smiles": "COc1cc(Cn2ncc(NC(=O)Cc3ccc(OC4CC(F)(F)C4)cc3)n2)ccc1F", "note": "[Example 114]", "IC50": 73}
{"smiles": "COc1ccc(Cn2ncc(NC(=O)Cc3ccc4cnn(C)c4c3)n2)cc1F", "note": "[Example 121, N-[2-(3-Fluoro-4-methoxy-benzyl)-2H-[1,2,3]triazol-4-yl]-2-(1-methyl-1H-indazol-6-yl)-acetamide]", "IC50": 290}
{"smiles": "COc1ccc(Cn2ncc(NC(=O)Cc3ccc(N4CCCC4)nc3)n2)cc1OC", "note": "[Example 51, N-[2-(3,4-Dimethoxy-benzyl)-2H-[1,2,3]triazol-4-yl]-2-(6-pyrrolidin-1-yl-pyridin-3-yl)-acetamide]", "IC50": 600}
{"smiles": "Cn1ncc2cc(CC(=O)Nc3cnn(Cc4ccc(C#N)c(F)c4)n3)ccc21", "note": "[Example 76, N-[2-(4-Cyano-3-fluoro-benzyl)-2H-[1,2,3]triazol-4-yl]-2-(1-methyl-1H-indazol-5-yl)-acetamide]", "IC50": 120}
{"smiles": "CCn1ncc2cc(CC(=O)Nc3cnn(Cc4ccc(OC(F)(F)F)c(F)c4)n3)ccc21", "note": "[Example 190, 2-(1-Ethyl-1H-indazol-5-yl)-N-[2-(3-fluoro-4-trifluoromethoxy-benzyl)-2H-[1,2,3]triazol-4-yl]-acetamide]", "IC50": 14}
{"smiles": "COc1c(F)cc(Cn2ncc(NC(=O)Cc3ccc4cnn(C)c4c3)n2)cc1F", "note": "[Example 142, N-[2-(3,5-Difluoro-4-methoxy-benzyl)-2H-[1,2,3]triazol-4-yl]-2-(1-methyl-1H-indazol-6-yl)-acetamide]", "IC50": 88}
{"smiles": "CCn1ncc2cc(CC(=O)Nc3cnn(Cc4cc(F)c(F)c(OC)c4)n3)ccc21", "note": "[Example 220, N-[2-(3,4-Difluoro-5-methoxy-benzyl)-2H-[1,2,3]triazol-4-yl]-2-(1-ethyl-1H-indazol-5-yl)-acetamide]", "IC50": 190}
{"smiles": "CCCn1ncc2cc(CC(=O)Nc3cnn(Cc4ccc(C#N)cc4)n3)ccc21", "note": "[Example 104, N-[2-(4-Cyano-benzyl)-2H-[1,2,3]triazol-4-yl]-2-(1-propyl-1H-indazol-5-yl)-acetamide]", "IC50": 70}
{"smiles": "CCOc1ccc(Cn2ncc(NC(=O)Cc3ccc4c(cnn4C)c3)n2)cc1", "note": "[Example 46, N-[2-(4-Ethoxy-benzyl)-2H-[1,2,3]triazol-4-yl]-2-(1-methyl-1H-indazol-5-yl)-acetamide]", "IC50": 63}
{"smiles": "COc1cc(Cn2ncc(NC(=O)Cc3ccc(N4CCCC4)nc3)n2)cc(F)c1F", "note": "[Example 221, N-[2-(3,4-Difluoro-5-methoxy-benzyl)-2H-[1,2,3]triazol-4-yl]-2-(6-pyrrolidin-1-yl-pyridin-3-yl)-acetamide]", "IC50": 160}
{"smiles": "Cc1cc(Cn2ncc(NC(=O)Cc3ccc4c(cnn4C)c3)n2)ccc1C#N", "note": "[Example 164, N-[2-(4-Cyano-3-methyl-benzyl)-2H-[1,2,3]triazol-4-yl]-2-(1-methyl-1H-indazol-5-yl)-acetamide]", "IC50": 110}
{"smiles": "CC1(c2ccc(CC(=O)Nc3cnn(Cc4ccc(OC(F)(F)F)cc4)n3)cc2)COC1", "note": "[Example 93, 2-[4-(3-Methyl-oxetan-3-yl)-phenyl]-N-[2-(4-trifluoromethoxy-benzyl)-2H-[1,2,3]triazol-4-yl]-acetamide]", "IC50": 15}
{"smiles": "CC(C)c1ccc(CC(=O)Nc2cnn(Cc3ccc(OC(F)(F)F)c(F)c3)n2)cc1", "note": "[Example 187, N-[2-(3-Fluoro-4-trifluoromethoxy-benzyl)-2H-[1,2,3]triazol-4-yl]-2-(4-isopropyl-phenyl)-acetamide]", "IC50": 65}
{"smiles": "CC(C)(C)c1ccc(CC(=O)Nc2cnn(Cc3ccc(F)cc3)n2)cc1", "note": "[Example 54, 2-(4-tert-Butyl-phenyl)-N-[2-(4-fluoro-benzyl)-2H-[1,2,3]triazol-4-yl]-acetamide]", "IC50": 26}
{"smiles": "Cc1ccc(Cn2ncc(NC(=O)Cc3ccc(N4CCC(F)(F)C4)nc3)n2)cc1", "note": "[Example 65, 2-[6-(3,3-Difluoro-pyrrolidin-1-yl)-pyridin-3-yl]-N-[2-(4-methyl-benzyl)-2H-[1,2,3]triazol-4-yl]-acetamide]", "IC50": 23}
{"smiles": "O=C(Cc1ccc(C2COC2)cc1)Nc1cnn(Cc2ccc(F)c(F)c2)n1", "note": "[Example 23, N-[2-(3,4-Difluoro-benzyl)-2H-[1,2,3]triazol-4-yl]-2-(4-oxetan-3-yl-phenyl)-acetamide]", "IC50": 46}
{"smiles": "CC(C)(C)c1ccc(CC(=O)Nc2cnn(Cc3ccc(OC(F)(F)F)c(F)c3)n2)cc1", "note": "[Example 184, 2-(4-tert-Butyl-phenyl)-N-[2-(3-fluoro-4-trifluoromethoxy-benzyl)-2H-[1,2,3]triazol-4-yl]-acetamide]", "IC50": 83}
{"smiles": "N#Cc1ccc(Cn2ncc(NC(=O)Cc3ccc(C4(C(F)(F)F)CC4)cc3)n2)cc1", "note": "[Example 195, N-[2-(4-Cyano-benzyl)-2H-[1,2,3]triazol-4-yl]-2-[4-(1-trifluoromethyl-cyclopropyl)-phenyl]-acetamide]", "IC50": 63}
{"smiles": "CC(C)c1ccc(CC(=O)Nc2cnn(Cc3ccc(F)c(C#N)c3)n2)cc1", "note": "[Example 174, N-[2-(3-Cyano-4-fluoro-benzyl)-2H-[1,2,3]triazol-4-yl]-2-(4-isopropyl-phenyl)-acetamide]", "IC50": 28}
{"smiles": "CCCCn1ncc2cc(CC(=O)Nc3cnn(Cc4ccc(F)c(F)c4)n3)ccc21", "note": "[Example 30, 2-(1-Butyl-1H-indazol-5-yl)-N-[2-(3,4-difluoro-benzyl)-2H-[1,2,3]triazol-4-yl]-acetamide]", "IC50": 17}
{"smiles": "COc1ccc(Cn2ncc(NC(=O)Cc3ccc(C(C)(C)C)cc3)n2)cc1F", "note": "[Example 130, 2-(4-tert-Butyl-phenyl)-N-[2-(3-fluoro-4-methoxy-benzyl)-2H-[1,2,3]triazol-4-yl]-acetamide]", "IC50": 62}
